Among the data in US20150284375A1 (AJINOMOTO CO., INC., priority 2012, published 2015) are IC50 values, retold here.

This test addresses T1, human TRPA1 (Homo sapiens, UniProt O75762).
T1 construct: expressed in transfected cells; host or cells: Human embryonic kidney-derived 293T cells, transiently transfected with the pcDNA3.1/zeo(+) human TRPA1 plasmid
Nature of the test: Measurement of TRPA1 antagonist activity (intracellular calcium increase, FLIPR, allylisothiocyanate stimulation). The class given is cell-based. As to conditions: allylisothiocyanate 20 μM stimulation, FLIPR calcium assay; read-out: antagonism hTRPA1. The method, boiled down:
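IC50 derives from a sigmoid fit of inhibition of the 5-min FLIPR fluorescence change evoked by 20 μM allylisothiocyanate, normalized between agonist and buffer responses. Test substance, diluted in HBSS/20 mM HEPES pH 7.2 plus 0.1% BSA, was applied 10 min beforehand at room temperature to Calcium4-loaded 293T cells transiently expressing human TRPA1.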
For orientation: Calcium flux is commonly read through the fluorescence of an indicator in the cells.

The structures appear in SMILES notation.

T1 sequence (O75762 whole entry): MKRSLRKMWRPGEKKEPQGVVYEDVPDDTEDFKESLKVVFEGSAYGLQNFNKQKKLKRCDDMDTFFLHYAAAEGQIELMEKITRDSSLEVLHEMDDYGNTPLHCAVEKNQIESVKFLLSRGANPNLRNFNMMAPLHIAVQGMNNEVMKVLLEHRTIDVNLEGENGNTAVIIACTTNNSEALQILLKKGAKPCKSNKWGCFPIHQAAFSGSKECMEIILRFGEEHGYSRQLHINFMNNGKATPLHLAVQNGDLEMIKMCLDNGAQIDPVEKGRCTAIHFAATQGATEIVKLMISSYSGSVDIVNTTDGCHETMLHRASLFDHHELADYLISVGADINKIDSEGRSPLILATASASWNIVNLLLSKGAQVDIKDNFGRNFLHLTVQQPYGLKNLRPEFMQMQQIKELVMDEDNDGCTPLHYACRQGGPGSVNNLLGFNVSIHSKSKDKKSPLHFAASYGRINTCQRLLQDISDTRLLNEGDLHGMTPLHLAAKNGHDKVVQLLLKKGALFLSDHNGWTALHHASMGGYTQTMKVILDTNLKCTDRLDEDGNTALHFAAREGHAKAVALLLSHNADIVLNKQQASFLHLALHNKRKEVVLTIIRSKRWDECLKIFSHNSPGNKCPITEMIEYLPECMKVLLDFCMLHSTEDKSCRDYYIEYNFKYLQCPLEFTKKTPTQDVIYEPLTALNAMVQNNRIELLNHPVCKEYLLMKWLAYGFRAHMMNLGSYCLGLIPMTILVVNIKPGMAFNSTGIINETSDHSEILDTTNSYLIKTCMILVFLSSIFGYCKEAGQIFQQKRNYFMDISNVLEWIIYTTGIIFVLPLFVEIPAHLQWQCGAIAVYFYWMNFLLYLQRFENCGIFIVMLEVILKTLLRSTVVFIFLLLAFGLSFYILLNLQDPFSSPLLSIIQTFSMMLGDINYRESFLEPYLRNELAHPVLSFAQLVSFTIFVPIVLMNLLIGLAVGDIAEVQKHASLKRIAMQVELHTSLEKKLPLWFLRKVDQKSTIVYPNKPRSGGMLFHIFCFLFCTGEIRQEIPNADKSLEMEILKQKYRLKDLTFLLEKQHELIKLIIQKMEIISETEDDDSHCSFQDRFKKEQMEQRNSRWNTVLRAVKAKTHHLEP

As for `O=C(NCc1ccc(Oc2ccnc(C(F)(F)F)c2)cc1)[C@@H]1CCCN1S(=O)(=O)c1ccsc1` [Example 156, (2S)-1-(3-thienylsulfonyl)-N-[[4-[[2-(trifluoromethyl)-4-pyridyl]oxy]phenyl]methyl]pyrrolidine-2-carboxamide], the IC50 came out at 1000 nM.

Turning to `O=C(NCc1cccc(Oc2ccc(C(F)(F)F)cc2)c1)[C@@H]1C[C@H](F)CN1S(=O)(=O)c1ccc(F)cc1` [Example 157, (2S,4S)-4-fluoro-1-(4-fluorophenyl)sulfonyl-N-[[3-[4-(trifluoromethyl)phenoxy]phenyl]methyl]pyrrolidine-2-carboxamide], the IC50 is 840 nM. To `O=C(NCc1cccc(Oc2ccc(C(F)(F)F)cc2)c1)[C@@H]1CC(F)(F)CN1S(=O)(=O)c1ccc(F)cc1` [Example 159, (2S)-4,4-difluoro-1-(4-fluorophenyl)sulfonyl-N-[[3-[4-(trifluoromethyl)phenoxy]phenyl]methyl]pyrrolidine-2-carboxamide] belongs 210 nM; to `O=C(NCc1cccc(Oc2ccc(C(F)(F)F)cc2)c1)[C@@H]1C=CCN1S(=O)(=O)c1ccco1` [Example 160, (2S)-1-(2-furylsulfonyl)-N-[[3-[4-(trifluoromethyl)phenoxy]phenyl]methyl]-2,5-dihydropyrrole-2-carboxamide], 210 nM. To `O=C(NCc1cccc(Oc2ccc(C(F)(F)F)cc2)c1)[C@@H]1C=CCN1S(=O)(=O)c1ccsc1` [Example 161, (2S)-1-(3-thienylsulfonyl)-N-[[3-[4-(trifluoromethyl)phenoxy]phenyl]methyl]-2,5-dihydropyrrole-2-carboxamide] belongs 57 nM; to `O=C(NCc1cccc(Oc2ccc(C(F)(F)F)cc2)c1)[C@@H]1CCCN1S(=O)(=O)c1ccoc1` [Example 162, (2S)-1-(3-furylsulfonyl)-N-[[3-[4-(trifluoromethyl)phenoxy]phenyl]methyl]pyrrolidine-2-carboxamide], 96 nM.

`O=C(NCc1cccc(OCc2ccc(C(F)(F)F)cc2)c1)[C@@H]1CCCN1S(=O)(=O)c1ccc(F)cc1` [Example 163, (2S)-1-(4-fluorophenyl)sulfonyl-N-[[3-[[4-(trifluoromethyl)phenyl]methoxy]phenyl]methyl]pyrrolidine-2-carboxamide]: the IC50 was found to be 27 nM. Consider `O=C(NCc1cccc(OCc2ccc(C(F)(F)F)cc2)c1)[C@@H]1C[C@H](F)CN1S(=O)(=O)c1ccc(F)cc1` [Example 164, (2S,4S)-4-fluoro-1-(4-fluorophenyl)sulfonyl-N-[[3-[[4-(trifluoromethyl)phenyl]methoxy]phenyl]methyl]pyrrolidine-2-carboxamide], for which the IC50 amounted to 450 nM. On to `O=C(NCc1cccc(OCc2ccc(C(F)(F)F)cc2)c1)[C@@H]1C[C@@H](F)CN1S(=O)(=O)c1ccc(F)cc1` [Example 165, (2S,4R)-4-fluoro-1-(4-fluorophenyl)sulfonyl-N-[[3-[[4-(trifluoromethyl)phenyl]methoxy]phenyl]methyl]pyrrolidine-2-carboxamide], for which the IC50 was determined as 150 nM. The same measure for `O=C(NCc1cccc(OCc2ccc(C(F)(F)F)cc2)c1)[C@@H]1CC(F)(F)CN1S(=O)(=O)c1ccc(F)cc1` [Example 166, (2S)-4,4-difluoro-1-(4-fluorophenyl)sulfonyl-N-[[3-[[4-(trifluoromethyl)phenyl]methoxy]phenyl]methyl]pyrrolidine-2-carboxamide]: 110 nM; for `O=C(NCc1cccc(OCc2ccc(C(F)(F)F)cc2)c1)[C@@H]1[C@@H](O)CCN1S(=O)(=O)c1ccc(F)cc1` [Example 167, (2S,3S)-1-(4-fluorophenyl)sulfonyl-3-hydroxy-N-[[3-[[4-(trifluoromethyl)phenyl]methoxy]phenyl]methyl]pyrrolidine-2-carboxamide]: 240 nM; for `O=C(NCc1cccc(OCc2ccc(C(F)(F)F)cc2)c1)[C@@H]1[C@H](O)CCN1S(=O)(=O)c1ccc(F)cc1` [Example 168, (2S,3R)-1-(4-fluorophenyl)sulfonyl-3-hydroxy-N-[[3-[[4-(trifluoromethyl)phenyl]methoxy]phenyl]methyl]pyrrolidine-2-carboxamide]: 2200 nM. To `O=C(NCc1cccc(OCc2ccc(C(F)(F)F)cc2)c1)[C@@H]1C[C@@H](O)CN1S(=O)(=O)c1ccc(F)cc1` [Example 169, (2S,4R)-1-(4-fluorophenyl)sulfonyl-4-hydroxy-N-[[3-[[4-(trifluoromethyl)phenyl]methoxy]phenyl]methyl]pyrrolidine-2-carboxamide] belongs 290 nM; to `O=C(NCc1cccc(OCc2ccc(C(F)(F)F)cc2)c1)[C@@H]1C[C@H](O)CN1S(=O)(=O)c1ccc(F)cc1` [Example 170, (2S,4S)-1-(4-fluorophenyl)sulfonyl-4-hydroxy-N-[[3-[[4-(trifluoromethyl)phenyl]methoxy]phenyl]methyl]pyrrolidine-2-carboxamide], 1700 nM. The same measure for `O=C(NCc1cccc(OCc2ccc(C(F)(F)F)cc2)c1)[C@@H]1[C@H]2C[C@H]2CN1S(=O)(=O)c1ccc(F)cc1` [Example 171, (1R,4S,5S)-3-(4-fluorophenyl)sulfonyl-N-[[3-[[4-(trifluoromethyl)phenyl]methoxy]phenyl]methyl]-3-azabicyclo[3.1.0]hexane-4-carboxamide]: 1900 nM; for `O=C(NCc1cccc(OCc2ccc(C(F)(F)F)cc2)c1)[C@@H]1[C@@H]2C[C@@H]2CN1S(=O)(=O)c1ccc(F)cc1` [Example 172, (1S,4S,5R)-3-(4-fluorophenyl)sulfonyl-N-[[3-[[4-(trifluoromethyl)phenyl]methoxy]phenyl]methyl]-3-azabicyclo[3.1.0]hexane-4-carboxamide]: 1200 nM; for `O=C(NCc1cccc(OCc2ccc(C(F)(F)F)cc2)c1)[C@@H]1C[C@H]2C[C@H]2N1S(=O)(=O)c1ccc(F)cc1` [Example 173, (1R,3S,5R)-4-(4-fluorophenyl)sulfonyl-N-[[3-[[4-(trifluoromethyl)phenyl]methoxy]phenyl]methyl]-4-azabicyclo[3.1.0]hexane-3-carboxamide]: 99 nM. For the compound `O=C(NCc1cccc(OCc2ccc(C(F)(F)F)cc2)c1)[C@@H]1C[C@@H]2C[C@@H]2N1S(=O)(=O)c1ccc(F)cc1` [Example 174, (1S,3S,5S)-4-(4-fluorophenyl)sulfonyl-N-[[3-[[4-(trifluoromethyl)phenyl]methoxy]phenyl]methyl]-4-azabicyclo[3.1.0]hexane-3-carboxamide], the IC50 was 49 nM. The same measure for `O=C(NCc1cccc(OCc2ccc(C(F)(F)F)cc2)c1)[C@@H]1CCCCN1S(=O)(=O)c1ccc(F)cc1` [Example 175, (2S)-1-(4-fluorophenyl)sulfonyl-N-[[3-[[4-(trifluoromethyl)phenyl]methoxy]phenyl]methyl]piperidine-2-carboxamide]: 780 nM; for `O=C(NCc1cccc(OCc2ccc(C(F)(F)F)cc2)c1)[C@@H]1CCCN1S(=O)(=O)c1ccco1` [Example 176, (2S)-1-(2-furylsulfonyl)-N-[[3-[[4-(trifluoromethyl)phenyl]methoxy]phenyl]methyl]pyrrolidine-2-carboxamide]: 36 nM; for `O=C(NCc1cccc(OCc2ccc(C(F)(F)F)cc2)c1)[C@@H]1CCCN1S(=O)(=O)c1ccoc1` [Example 177, (2S)-1-(3-furylsulfonyl)-N-[[3-[[4-(trifluoromethyl)phenyl]methoxy]phenyl]methyl]pyrrolidine-2-carboxamide]: 27 nM.

As for `O=C(NCc1cccc(OCc2ccc(C(F)(F)F)cc2)c1)[C@@H]1CCCN1S(=O)(=O)c1ccsc1` [Example 178, (2S)-1-(3-thienylsulfonyl)-N-[[3-[[4-(trifluoromethyl)phenyl]methoxy]phenyl]methyl]pyrrolidine-2-carboxamide], the IC50 was found to be 8.6 nM. With `O=C(NCc1cccc(OCc2ccc(C(F)(F)F)cc2)c1)[C@@H]1[C@@H](O)CCN1S(=O)(=O)c1ccco1` [Example 179, (2S,3S)-1-(2-furylsulfonyl)-3-hydroxy-N-[[3-[[4-(trifluoromethyl)phenyl]methoxy]phenyl]methyl]pyrrolidine-2-carboxamide], the IC50 is 600 nM.

As for `O=C(NCc1cccc(OCc2ccc(C(F)(F)F)cc2)c1)[C@@H]1C[C@@H](O)CN1S(=O)(=O)c1ccco1` [Example 180, (2S,4R)-1-(2-furylsulfonyl)-4-hydroxy-N-[[3-[[4-(trifluoromethyl)phenyl]methoxy]phenyl]methyl]pyrrolidine-2-carboxamide], the IC50 is 1300 nM. Regarding `O=C(NCc1cccc(OCc2ccccc2)c1)[C@@H]1CCCN1S(=O)(=O)c1ccco1` [Example 181, (2S)-N-[(3-benzyloxyphenyl)methyl]-1-(2-furylsulfonyl)pyrrolidine-2-carboxamide], the IC50 was 100 nM. `O=C(NCc1cccc(OCc2ccccc2)c1)[C@@H]1C=CCN1S(=O)(=O)c1ccco1` [Example 182, (2S)-N-[(3-benzyloxyphenyl)methyl]-1-(2-furylsulfonyl)-2,5-dihydropyrrole-2-carboxamide]: the IC50 stood at 83 nM. Turning to `O=C(NCc1cccc(Oc2ccc(C(F)(F)F)cc2)c1)[C@@H]1CCCN1S(=O)(=O)c1nccs1` [Example 183, (2S)-1-thiazol-2-ylsulfonyl-N-[[3-[4-(trifluoromethyl)phenoxy]phenyl]methyl]pyrrolidine-2-carboxamide], the IC50 amounted to 3300 nM. The same measure for `O=C(NCc1cccc(OCc2ccc(C(F)(F)F)cc2)c1)[C@@H]1CCCN1S(=O)(=O)c1nccs1` [Example 184, (2S)-1-thiazol-2-ylsulfonyl-N-[[3-[[4-(trifluoromethyl)phenyl]methoxy]phenyl]methyl]pyrrolidine-2-carboxamide]: 980 nM; for `N#Cc1ccc(S(=O)(=O)N2CCC[C@H]2C(=O)NCc2cccc(OCc3ccc(C(F)(F)F)cc3)c2)cc1` [Example 185, (2S)-1-(4-cyanophenyl)sulfonyl-N-[[3-[[4-(trifluoromethyl)phenyl]methoxy]phenyl]methyl]pyrrolidine-2-carboxamide]: 240 nM.
